The source of these data is article PMC11311998, “AR71, Histamine H3 Receptor Ligand—In Vitro and In Vivo Evaluation (Anti-Inflammatory Activity, Metabolic Stability, Toxicity, and Analgesic Action)” (International Journal of Molecular Sciences, 2024).

The test system of data set [1] is SH-SY5Y cells. Put plainly: viability of neuroblastoma cells (MTS assay). The class given is cell-based, human. The method, then: The toxicity of AR71 in neuroblastoma cells was evaluated with the 3-(4,5-dimethylthiazol-2-yl)-5-(3-carboxymethoxyphenyl)-2-(4-sulfophenyl)-2H-tetrazolium (MTS) assay. The cells were cultured with AR71 at various concentrations ranging from nanomolar to micromolar for 24 h.
SH-SY5Y cells (the human neuroblastoma cell line) were purchased from the American Type Culture Collection (ATCC® no. CRL-2266™; Manassas, VA, USA). The cells were grown in a complete culture medium containing DMEM/F-12 medium (Gibco no. A41920-01) supplemented with 10% foetal bovine serum (FBS, Gibco no. 10500-064), non-essential amino acids (Biowest, Nuaillé, France), and antibiotics (Life Technologies) in a humidified incubator containing 95% air and 5% CO2 at 37 °C. Experiments were performed with SH-SY5Y cells from passage (15 up to 25—W.W.).
Neurotoxicity evaluation was performed with the SH-SY5Y cell line. The cells were seeded (5 × 10^3 cells/100 μL/well) in transparent 96-well plates (Corning Falcon, no. 353072, Merck KGaA, Darmstadt, Germany), in a complete culture medium and cultured overnight. The next day, the medium was removed and replaced with a fresh one containing 0.1% DMSO (vehicle control, Veh) or increasing concentration of the AR71 compound (the concentrations studied covered the range of nanomolar and micromolar concentrations). Treatment with the compounds was performed for 24 h. At the end of the incubation time, the cells were examined under an inverted microscope to rule out possible precipitation of the compound in the culture medium. Cell viability was examined using an MTS-based CellTiter96® AQueous One Solution Cell Proliferation Assay (Promega, Madison, WI, USA) following the manufacturer’s protocol. Briefly, 20 μL of MTS solution was pipetted directly into each well containing 100 μL of culture medium with or without cells (blank) and incubated at 37 °C for 1 h. The absorbance was measured at 490 nm using the Tecan Spark multimode plate reader (Tecan, Männedorf, Switzerland). A reference wavelength of 630 nm was used to subtract the background. The viability of individual samples was calculated relative to the vehicle-treated cells (0.1% DMSO). The results are presented as means with SEMs of two independent experiments, each comprising four replicates per treatment group. Data from the MTS assay were used to determine the IC50 value. It was calculated by fitting a nonlinear regression to a sigmoidal dose–response curve in GraphPad Prism version 8.0.1 (GraphPad Software, Inc., San Diego, CA, USA).
A general note: Tetrazolium assays rely on reduction of a dye to a coloured formazan, in cell work by metabolically active cells.

The subject of data set [2] is SH-SY5Y cells. Put plainly: DNA content / cell cycle (2N/4N DNA ratio), image cytometry. The class given is cell-based, human. Here is the method: (§1) To evaluate the growth dynamics of SH-SY5Y cells in the presence of AR71, neuroblastoma cells were treated with increasing concentrations (0.39–25 µM) of the compound tested for 24 or 72 h. Using image cytometry, we calculated the DNA content index as a 2N/4N DNA ratio to analyse the cell cycle distribution after 24 and 72 h of incubation with AR71.
SH-SY5Y cells were initially seeded in 96-well plates at a density of 5000 cells per well in 120 μL of medium. After 24 h, the cells were exposed to different concentrations of AR71 for either 24 or 72 h. Following a wash with PBS, the cells were fixed with 4% formaldehyde for 20 min and then stained with 1 µg/mL of Hoechst 33342 for 30 min at room temperature. Subsequently, images of 16 fields per well were captured using the ArrayScan VTI HCS Reader from Thermo Fisher Scientific, Inc. (Thermo Fisher Scientific, Waltham, MA, USA), which was equipped with a 5× objective. The cell number was calculated as the sum of the Hoechst-33342-stained cell nuclei using Cell Cycle Bioapplication V3 software and expressed as a per cent of control. The remaining adherent cells in culture wells reflected the cytotoxic potential of the tested compound. In the next step, a series of detailed images were acquired using the ArrayScan VTI HCS Reader equipped with a 10× objective to collect at least 500 nuclei/cells per replicate. The DNA cell content of single cells was analysed based on Hoechst-33342 fluorescence intensity of their nuclei using Cell Cycle Bioapplication V3 software and presented as the DNA 2N/4N ratio. All experiments were performed three times, each in four replicates. IC50 values were calculated with a non-linear fit to a sigmoidal dose–response curve (log compound vs. normalised response) using GraphPad Prism 6.07. The results are presented as mean ± SEM from at least three independent experiments. Statistical significance was evaluated using one-way ANOVA followed by Dunnett’s test. * p < 0.05, ** p < 0.01, and *** p < 0.001 indicate significant differences compared with the control counterparts.

The subject of data set [3] is BV-2 cells. Details: method as in PMID 36370200. The following applies: LPS-treated BV-2 cells; cited from earlier work.
For data set [4], the system named is SH-SY5Y cells. Put plainly: cell number / growth, image cytometry. The class given is cell-based. The settings on record: Homo sapiens. Here is the method: as §1
SH-SY5Y cells were initially seeded in 96-well plates at a density of 5000 cells per well in 120 μL of medium. After 24 h, the cells were exposed to different concentrations of AR71 for either 24 or 72 h. […] Subsequently, images of 16 fields per well were captured using the ArrayScan VTI HCS Reader from Thermo Fisher Scientific, Inc. (Thermo Fisher Scientific, Waltham, MA, USA), which was equipped with a 5× objective. The cell number was calculated as the sum of the Hoechst-33342-stained cell nuclei using Cell Cycle Bioapplication V3 software and expressed as a per cent of control. […] In the next step, a series of detailed images were acquired using the ArrayScan VTI HCS Reader equipped with a 10× objective to collect at least 500 nuclei/cells per replicate. The DNA cell content of single cells was analysed based on Hoechst-33342 fluorescence intensity of their nuclei using Cell Cycle Bioapplication V3 software and presented as the DNA 2N/4N ratio. […]

One may read the IC50 as the midpoint of a concentration-inhibition curve. As to `COc1cc(/C=C/C(=O)c2ccc(OCCCN3CCCCC3)cc2)cc(OC)c1OC` [AR71, (E)-3-(3,4,5-trimethoxyphenyl)-1-(4-(3-(piperidin-1-yl)propoxy)phenyl)prop-2-en-1-one], the “loss in neuroblastoma viability vs control cells” value in data set [1] (50 μM, 24 h) is 73%. In data set [1] (24 h), the “concentration from which cell metabolic activity decreased significantly (p < 0.001)” value was ≥ 4.17 µM. For the same molecule, the IC50 turned out to be 24.9 µM in data set [1] (Homo sapiens, SH-SY5Y, 24 h incubation); 8.46 µM in data set [4] (24 h incubation); 3.19 µM in data set [4] (72 h incubation). Besides, the “effect on cell viability” value in data set [1] (concentrations up to 0.72 μM, 24 h) is “did not affect cell viability”. Moreover, the “effect on cell cycle” value in data set [2] (3.125–25 µM, 24 and 72 h) is “cell cycle arrest at the G2/M phase (4N)”. The “IC50 for 2N/4N DNA ratio” value in data set [2] (24 h incubation) turned out to be 18.8 µM; in data set [2] (72 h incubation) it was 4.54 µM. The “effect on proinflammatory cytokines (IL-1β, IL-6, TNF-α), mRNA and protein level” value in data set [3] was “reduced the level of proinflammatory cytokines”.
